Experimental data: article PMC8072159, “5-Bis-(2,6-difluoro-benzylidene) Cyclopentanone Acts as a Selective 11β-Hydroxysteroid Dehydrogenase one Inhibitor to Treat Diet-Induced Nonalcoholic Fatty Liver Disease in Mice” (Frontiers in Pharmacology, 2021)
Entries after “also recorded” stand apart in the source; their conditions may differ.

Tests used:
Assay type in all cases: biochemical
[1] = target: T1, 11β-HSD1 (Homo sapiens, UniProt P28845); assay: 11β-HSD1 reductive activity in human liver microsomes
T1 construct: purchased Gentest (Woburn, MA); host or cells: human liver microsomes (tissue)
T1 sequence (P28845 whole entry): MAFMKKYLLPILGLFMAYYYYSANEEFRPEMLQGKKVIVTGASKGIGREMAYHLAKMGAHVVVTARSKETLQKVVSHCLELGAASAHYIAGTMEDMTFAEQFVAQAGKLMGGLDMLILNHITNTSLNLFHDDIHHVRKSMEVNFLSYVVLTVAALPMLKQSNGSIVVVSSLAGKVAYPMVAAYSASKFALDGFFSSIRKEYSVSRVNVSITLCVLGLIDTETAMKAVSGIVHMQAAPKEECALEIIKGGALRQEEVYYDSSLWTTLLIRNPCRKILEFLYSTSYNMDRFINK
Protocol: Determination of 11β-HSD1 in Rat, Mouse, and Human Liver Microsomes
The reductive activity of 11β-HSD1 in rat, mouse, and human liver microsomes was measured as previously described ([Ge et al., 2005]). In short, the 11β-HSD1 activity assay tube contained 25 nM substrate, 11DHC (for rats or mice) or cortisone (for humans), spiked with 60,000 dpm of each 3H-steroid. 11β-HSD1 activity was measured using 11-DHC or cortisone as a substrate. A 25 nM steroid substrate is used because the concentration is within the physiological concentration range. Rat (10 μg), mouse (10 μg) and human (4 μg) liver microsomes were incubated with 11-ketosteroids, 0.2 mM NADPH, and various concentrations (10^−10–10^−5 M) of drug candidates at 37 °C for 60–90 min. The inhibitory ability of the chemical relative to the control (DMSO solvent) was measured. […] The reaction was stopped by adding 10 µL of 1 mM glycyrrhetinic acid and 1 ml of ice-cold ether. […] The steroids in chloroform and methanol (90:10, v/v) were chromatographically separated on a thin layer plate, and radioactivity was measured using a scanning radiometer (System AR2000, Bioscan Inc., Washington, DC, United States). The percentage of 11DHC being converted to CORT or cortisone being converted to cortisol can be calculated by dividing the radioactivity count of 11-OH-steroids by the total count. […]

[2] = target: T2, 11β-HSD2 (Rattus norvegicus, UniProt P50233); assay: 11β-HSD2 activity in rat kidney microsomes; details: 100 μM
T2 construct: from tissue; host or cells: rat kidney microsomes prepared in house
T2 sequence (P50233 1-400): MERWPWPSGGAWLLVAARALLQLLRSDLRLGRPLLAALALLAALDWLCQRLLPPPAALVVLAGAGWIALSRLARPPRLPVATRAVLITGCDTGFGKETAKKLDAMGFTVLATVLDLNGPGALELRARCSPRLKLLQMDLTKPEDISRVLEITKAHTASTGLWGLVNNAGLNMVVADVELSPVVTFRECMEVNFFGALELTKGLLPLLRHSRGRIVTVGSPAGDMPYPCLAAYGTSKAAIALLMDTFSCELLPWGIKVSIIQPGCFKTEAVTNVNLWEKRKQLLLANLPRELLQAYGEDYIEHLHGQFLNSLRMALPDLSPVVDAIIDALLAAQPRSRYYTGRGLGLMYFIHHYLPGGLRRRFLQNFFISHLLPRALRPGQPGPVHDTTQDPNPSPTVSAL
Protocol: (§1) Preparation of Rat and Mouse Liver and Kidney Microsomes
(§2) The liver and kidney microsomes were prepared as previously described ([Guo et al., 2012]). Briefly, the tissue was homogenized in […] phosphate buffered saline (PBS) containing 0.25 M sucrose, and the nuclei and large cell debris were removed by centrifugation at 1500 g for 10 min. The supernatant was transferred to a tube and the mitochondria were removed by centrifugation at 10, 000 × g for 30 min. The supernatant was transferred to an ultracentrifuge tube and centrifuged twice at 105,000 × g, the resulting microsomal precipitate was collected. The protein content was measured by the BCA kit according to the manufacturer’s instruction. The protein concentration was adjusted to 20 mg/ml. These proteins were used to measure 11β-HSD1 and 11β-HSD2 activities.
(§3) Measurement of 11β-HSD2 Activity in Rat, Mouse, and Human Kidney Microsomes
(§4) The 11β-HSD2 assay was based on rat, mouse, and human kidney microsomes, as previously described ([Ge et al., 2005]). In brief, the 11β-HSD2 activity assay tube contained 25 nM substrate (cortisol for humans, CORT for rats and mice). […] The percentage conversion of cortisol to cortisone (humans) or CORT to 11DHC (rats and mice) was calculated by dividing the radioactive count of an 11keto-steroid product by the total count associated with both substrate and product.

[3] = target: T3, 11β-HSD2 (Mus musculus, UniProt P51661); assay: 11β-HSD2 activity in mouse kidney microsomes; details: 100 μM
T3 construct: from tissue; host or cells: mouse kidney microsomes prepared in house
T3 sequence (P51661 1-386): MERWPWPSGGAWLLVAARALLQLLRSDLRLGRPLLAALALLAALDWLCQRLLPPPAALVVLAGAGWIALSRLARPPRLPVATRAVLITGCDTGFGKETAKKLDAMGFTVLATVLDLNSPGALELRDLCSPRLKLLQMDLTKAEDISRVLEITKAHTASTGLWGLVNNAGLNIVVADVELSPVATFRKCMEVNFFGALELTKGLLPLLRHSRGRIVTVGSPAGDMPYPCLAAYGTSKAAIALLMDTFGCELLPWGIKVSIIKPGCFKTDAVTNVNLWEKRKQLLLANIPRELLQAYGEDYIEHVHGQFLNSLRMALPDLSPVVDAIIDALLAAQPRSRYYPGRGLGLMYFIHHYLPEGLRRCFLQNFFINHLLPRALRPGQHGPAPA
Protocol: as §1, §2, §3, §4

[4] = target: T4, 11β-HSD2 (Homo sapiens, UniProt P80365); assay: 11β-HSD2 activity in human kidney microsomes; details: 100 μM
T4 construct: purchased Gentest (Woburn, MA); host or cells: human kidney microsomes (tissue)
T4 sequence (P80365 1-405): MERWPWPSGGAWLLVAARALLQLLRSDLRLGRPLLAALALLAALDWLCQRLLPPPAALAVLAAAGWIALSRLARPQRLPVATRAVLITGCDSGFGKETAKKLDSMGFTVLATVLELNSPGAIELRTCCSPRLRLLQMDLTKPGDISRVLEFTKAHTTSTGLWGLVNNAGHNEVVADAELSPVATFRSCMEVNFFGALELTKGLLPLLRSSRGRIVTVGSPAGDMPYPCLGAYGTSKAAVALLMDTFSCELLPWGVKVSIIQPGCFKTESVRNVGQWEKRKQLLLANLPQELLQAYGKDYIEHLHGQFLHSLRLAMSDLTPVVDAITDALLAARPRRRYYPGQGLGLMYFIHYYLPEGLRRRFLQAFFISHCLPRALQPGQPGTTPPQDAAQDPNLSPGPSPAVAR
Protocol: as §3
The 11β-HSD2 assay was based on rat, mouse, and human kidney microsomes, as previously described ([Ge et al., 2005]). In brief, the 11β-HSD2 activity assay tube contained 25 nM substrate (cortisol for humans, CORT for rats and mice). Renal microsomes (10 μg) were incubated with substrate and 0.2 mM NAD^+ for 30 min. Other procedures were described above. The percentage conversion of cortisol to cortisone (humans) or CORT to 11DHC (rats and mice) was calculated by dividing the radioactive count of an 11keto-steroid product by the total count associated with both substrate and product.

O=C1/C(=C/c2c(F)cccc2F)CC/C1=C\c1c(F)cccc1F [WZS08, (2E,5E)-2,5-bis(2,6-difluorobenzylidene) Cyclopentanone]
inhibition at 100 µM ([1]; 100 μM, initial screening, read-out: 11β-HSD1 inhibition, human enzyme): 85.4 ± 1.67% | IC50 ([1]; human liver microsomes, 25 nM cortisone, NADPH): 621 nM | effect on 11β-HSD2 activity, rat [2]: did not affect; also recorded: almost no effect | effect on 11β-HSD2 activity, mouse [3]: did not affect; also recorded: almost no effect | effect on 11β-HSD2 activity, human [4]: did not affect; also recorded: almost no effect
